US20240166639A1, “POTENT AND SELECTIVE COMPOUNDS AS SEROTONIN 1B RECEPTOR MODULATORS” (LEUKOS BIOTECH, S.L., priority 2020, published 2024)
Counter-ions that a name gives are not always drawn.

How the values were obtained:
HL-60 = experiment: Cell viability assay, AML cell line HL-60; type: cell-based; settings: 48 h treatment, live cells by flow cytometry
Experimental: (§1) 0.15×10^6 AML cell lines (HL-60 or MonoMac-1) per mL were cultured in completed RPMI medium, supplemented with 10% Fetal bovine serum (FBS). Compounds were added to the medium at the concentration indicated (0.1, 1 and 10 μM), while controls were treated with equivalent concentration of vehicle (DMSO). Primary validation screenings were analyzed after 72 h of treatment, EC50 was determined upon 48 h treatments. Cells were stained with the live-dead discrimination dye 7-aminoactinomycin D (7-AAD) and Hoechst 33342 and acquired in a flow cytometer, with a volumetric counting. Live cells were discriminated based on a discrete FSC-SSC profile, 7-AAD negativity and dim positivity to Hoechst 33342. EC50 was calculated with the Prism GraphPad software.

MonoMac-1 = experiment: Cell viability assay, AML cell line MonoMac-1; type: cell-based; settings: 48 h treatment, live cells by flow cytometry
Experimental: as §1

human 5-HT2A receptor = human 5-HT2A receptor (Homo sapiens (Human), UniProt P28223); experiment: Competition binding in human 5-HT2A receptor; settings: [3H]-Ketanserin, CHO-5-HT2A membranes; read-out: h5-HT2A Ki
Experimental: Serotonin 5-HT2A receptor competition binding experiments were carried out in a polypropilene 96-well plate. In each well was incubated 80 μg of membranes from CHO-5-HT2A cell line prepared in the laboratory (protein concentration=4337 μg/ml), 1 nM [^3H]-Ketanserin (47.3 Ci/mmol, 1 mCi/ml, Perkin Elmer NET791250UC) and compounds studied and standard. Non-specific binding was determined in the presence of Methysergide 1 μM (Sigma M137). The reaction mixture (Vt: 250 μl/well) was incubated at 37° C. for 30 min, 200 μL was transfered to GF/B 96-well plate (Millipore, Madrid, Spain) pretreated with 0.5% of PEI and treated with binding buffer (Tris-HCl 50 mM, pH=7.4), after was filtered and washed six times with 250 μl wash buffer (Tris-HCl 50 mM, pH=6.6), before measuring in a microplate beta scintillation counter (Microbeta Trilux, PerkinElmer, Madrid, Spain).
The raw radioactivity data is adjusted to a logistic regression of 4 parameters using GraphPad Prism software, from the specific junction the value of IC50 is obtained. From the IC50 the Ki is calculated according to the following formula: […]
(§2) Being: • IC50: inhibitory concentration, • D: real concentration of radioligand and • Kd: dissociation constant (affinity of radioligand to the receptor).

human 5-HT1B receptor = human 5-HT1B receptor (Homo sapiens (Human), UniProt P28222); experiment: Competition binding in human 5-HT1B receptor; settings: [3H]-GR125743, Hela-5-HT1B membranes; read-out: h5-HT1B Ki
Experimental: Serotonin 5-HT1B receptor competition binding experiments were carried out in a polypropylene 96-well plate. In each well was incubated 5 μg of membranes from Hela-5-HT1B cell line prepared in the laboratory (Lot: A001/14-11-2011, protein concentration=3179 μg/ml), 1.5 nM [^3H]-GR125743 ([…], 0.1 mCi/ml, Perkin Elmer NET1172100UC) and compounds studied and standard. Non-specific binding was determined in the presence of GR55562 10 μM (TOCRIS 1054). The reaction mixture (Vt: 250 μl/well) was incubated at 25° C. for 90 min, 200 μL was transfered to GF/C 96-well plate (Millipore, Madrid, Spain) pretreated with 0.5% of PEI and treated with binding buffer (Tris-HCl 50 mM, EDTA 1 mM, MgCl2 10 mM, pH=7.4), after was filtered and washed four times with 250 μl wash buffer (Tris-HCl 50 mM, pH=7.4), before measuring in a microplate beta scintillation counter (Microbeta Trilux, PerkinElmer, Madrid, Spain). […] From the IC50 the Ki is calculated according to the following formula: […]
as §2

Sequence of human 5-HT2A receptor (P28223 whole entry): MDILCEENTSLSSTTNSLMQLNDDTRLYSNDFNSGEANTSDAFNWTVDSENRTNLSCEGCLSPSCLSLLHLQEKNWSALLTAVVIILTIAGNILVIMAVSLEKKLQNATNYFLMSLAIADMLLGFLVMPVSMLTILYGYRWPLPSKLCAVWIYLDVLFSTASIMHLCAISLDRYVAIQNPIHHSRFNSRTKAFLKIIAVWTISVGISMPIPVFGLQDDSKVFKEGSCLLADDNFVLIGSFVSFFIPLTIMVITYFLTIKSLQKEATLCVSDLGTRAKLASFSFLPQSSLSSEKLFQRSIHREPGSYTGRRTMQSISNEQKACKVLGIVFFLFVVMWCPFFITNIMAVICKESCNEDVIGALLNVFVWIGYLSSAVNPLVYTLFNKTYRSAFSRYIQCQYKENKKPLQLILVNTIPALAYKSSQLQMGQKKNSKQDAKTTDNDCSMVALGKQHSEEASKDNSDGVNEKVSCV
Sequence of human 5-HT1B receptor (P28222 whole entry): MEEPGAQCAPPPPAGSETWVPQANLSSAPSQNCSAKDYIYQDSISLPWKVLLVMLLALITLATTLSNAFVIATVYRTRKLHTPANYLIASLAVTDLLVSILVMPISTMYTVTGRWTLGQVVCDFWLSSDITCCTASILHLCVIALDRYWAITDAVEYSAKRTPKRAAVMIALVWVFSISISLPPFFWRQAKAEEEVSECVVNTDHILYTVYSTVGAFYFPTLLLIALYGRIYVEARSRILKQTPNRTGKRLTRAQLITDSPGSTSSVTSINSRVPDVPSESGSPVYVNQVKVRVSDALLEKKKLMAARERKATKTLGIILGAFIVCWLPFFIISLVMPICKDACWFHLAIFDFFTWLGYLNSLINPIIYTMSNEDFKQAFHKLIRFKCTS

Structure (SMILES) | EC50 (HL-60; Homo sapiens, HL-60) | EC50 (HL-60) | EC50 (MonoMac-1; Mono-Mac-1) | EC50 (MonoMac-1) | Ki (human 5-HT2A receptor) | Ki (human 5-HT1B receptor)
COc1cc(-c2noc(C)n2)ccc1-c1ccc(C(=O)Nc2ccc(Br)c(OCCN(C)C)c2)cn1 [Example 5, N-(4-bromo-3-(2-(dimethylamino)ethoxy)phenyl)-6-(2-methoxy-4-(5-methyl-1,2,4-oxadiazol-3-yl)phenyl)nicatinamide] | – | 1.18 µM | – | 1.14 µM | – | –
Cc1nc(-c2ccc(-c3ccc(C(=O)Nc4cc(OCCN(C)C)c(Br)cn4)cn3)c(C(F)(F)F)c2)no1 [Example 42, N-(5-bromo-4-(2-(dimethylamino)ethoxy)pyridin-2-yl)-6-(4-(5-methyl-1,2,4-oxadiazol-3-yl)-2-(trifluoromethyl)phenyl)nicotinamide] | – | – | – | – | 3.5 µM | 0.002 µM
Cc1nc(-c2ccc(-c3ccc(C(=O)Nc4ccc(C#N)c(OCCN(C)C)c4)cn3)c(Cl)c2)no1 [Example 9, 6-(2-chloro-4-(5-methyl-1,2,4-oxadiazol-3-yl)phenyl)-N-(4-cyano-3-(2-(dimethylamino)ethoxy)phenyl)nicotinamide] | 0.99 µM | – | 0.88 µM | – | – | –
Cc1nc(-c2ccc(-c3ccc(C(=O)Nc4ccc(Br)c(OCCN(C)C)c4)cn3)c(Cl)c2)no1 [Example 3, N-(4-bromo-3-(2-(dimethylamino)ethoxy)phenyl)-6-(2-chloro-4-(5-methyl-1,2,4-oxadiazol-3-yl)phenyl)nicotinamide] | 1.62 µM | – | 0.87 µM | – | – | –
Cc1nc(-c2ccc(-c3ccc(C(=O)Nc4cc(OCCN(C)C)c(Br)cn4)cn3)c(F)c2)no1 [Example 40, N-(5-bromo-4-(2-(dimethylamino)ethoxy)pyridin-2-yl)-6-(2-fluoro-4-(5-methyl-1,2,4-oxadiazol-3-yl)phenyl)nicotinamide] | 1.01 µM | – | 0.57 µM | – | 1.5 µM | 0.0035 µM
Cc1nc(-c2ccc(-c3ccc(C(=O)Nc4cc(OCCN(C)C)c(Br)cn4)cn3)c(Cl)c2)no1 [Example 41, N-(5-bromo-4-(2-(dimethylamino)ethoxy)pyridin-2-yl)-6-(2-chloro-4-(5-methyl-1,2,4-oxadiazol-3-yl)phenyl)nicotinamide] | – | – | – | – | 1 µM | 0.0003 µM
Cc1nc(-c2ccc(-c3ccc(C(=O)Nc4ccc(C#N)c(OCCN(C)C)c4)cn3)c(F)c2)no1 [Example 8, N-(4-cyano-3-(2-(dimethylamino)ethoxy)phenyl)-6-(2-fluoro-4-(5-methyl-1,2,4-oxadiazol-3-yl)phenyl)nicotinamide] | 2.81 µM | – | 2 µM | – | – | –
Cc1nc(-c2ccc(-c3ccc(C(=O)Nc4ccc(Br)c(OCCN(C)C)c4)cn3)c(C3CC3)c2)no1 [Example 1, N-(4-bromo-3-(2-(dimethylamino)ethoxy)phenyl)-6-(2-cyclopropyl-4-(5-methyl-1,2,4-oxadiazol-3-yl)phenyl)nicotinamide] | 1 µM | – | 0.79 µM | – | – | –
Cc1nc(-c2ccc(-c3ccc(C(=O)Nc4cc(OCCN(C)C)c(Br)cn4)cc3)c(F)c2)no1 [Example 16, N-(5-bromo-4-(2-(dimethylamino)ethoxy)pyridin-2-yl)-2′-fluoro-4′-(5-methyl-1,2,4-oxadiazol-3-yl)-[1,1′-biphenyl]-4-carboxamide] | 1.08 µM | – | 0.46 µM | – | – | –
Cc1nc(-c2ccc(-c3ccc(C(=O)N4CCc5cc6c(cc54)C4(CCN(C)CC4)CO6)cc3)c(C)c2)no1 [SB9, 1′-Methyl-5-[[2′-methyl-4′-(5-methyl-1,2,4-oxadiazol-3-yl)biphenyl-4-yl]carbonyl]-2,3,6,7-tetrahydrospiro[furo[2,3-f]indole-3,4′-piperidine hydrochloride, reference compound] | 4.78 µM | – | 1.18 µM | – | 0.00592 µM | –
Cc1nc(-c2ccc(-c3ccc(C(=O)Nc4ccc(Br)c(OCCN(C)C)c4)cn3)c(F)c2)no1 [Example 2, N-(4-bromo-3-(2-(dimethylamino)ethoxy)phenyl)-6-(2-fluoro-4-(5-methyl-1,2,4-oxadiazol-3-yl)phenyl)nicotinamide] | 0.58 µM | – | 1.11 µM | – | – | –

Second part, led by results:

EC50 (HL-60; Homo sapiens, HL-60) | EC50 (HL-60) | Structure (SMILES) | EC50 (MonoMac-1; Mono-Mac-1) | EC50 (MonoMac-1) | Ki (human 5-HT2A receptor) | Ki (human 5-HT1B receptor)
1.53 µM | – | Cc1nc(-c2ccc(-c3ccc(NC(=O)c4ccc(C#N)c(OCCN(C)C)c4)cn3)c(Cl)c2)no1 [Example 73, N-(6-(2-chloro-4-(5-methyl-1,2,4-oxadiazol-3-yl)phenyl)pyridin-3-yl)-4-cyano-3-(2-(dimethylamino)ethoxy)benzamide] | 3.08 µM | – | – | –
1.03 µM | – | Cc1nc(-c2ccc(-c3ccc(C(=O)Nc4ccc(Br)c(OCCN(C)C)n4)cn3)c(F)c2)no1 [Example 52, N-(5-bromo-6-(2-(dimethylamino)ethoxy)pyridin-2-yl)-6-(2-fluoro-4-(5-methyl-1,2,4-oxadiazol-3-yl)phenyl)nicotinamide] | 4.32 µM | – | – | –
2.65 µM | – | Cc1nc(-c2ccc(-c3ccc(C(=O)Nc4cc(OCCN(C)C)c(Br)cn4)cc3)c(Cl)c2)no1 [Example 17, N-(5-bromo-4-(2-(dimethylamino)ethoxy)pyridin-2-yl)-2′-chloro-4′-(5-methyl-1,2,4-oxadiazol-3-yl)-[1,1′-biphenyl]-4-carboxamide] | 1.32 µM | – | – | –
2.8 µM | – | COc1cc(-c2noc(C)n2)ccc1-c1ccc(C(=O)Nc2cc(OCCN(C)C)c(C#N)cn2)cc1 [Example 25, N-(5-cyano-4-(2-(dimethylamino)ethoxy)pyridin-2-yl)-2′-methoxy-4′-(5-methyl-1,2,4-oxadiazol-3-yl)-[1,1′-biphenyl]-4-carboxamide] | 2.69 µM | – | – | –
0.6 µM | – | Cc1nc(-c2ccc(-c3ccc(C(=O)Nc4ccc(Br)c(OCCN(C)C)n4)cn3)c(Cl)c2)no1 [Example 53, N-(5-bromo-6-(2-(dimethylamino)ethoxy)pyridin-2-yl)-6-(2-chloro-4-(5-methyl-1,2,4-oxadiazol-3-yl)phenyl)nicotinamide] | 1.32 µM | – | – | –
– | 0.62 µM | Cc1nc(-c2ccc(-c3ccc(C(=O)Nc4ccc(C#N)c(OCCN(C)C)n4)cn3)c(Cl)c2)no1 [Example 56, 6-(2-chloro-4-(5-methyl-1,2,4-oxadiazol-3-yl)pheny)-N-(5-cyano-6-(2-(dimethylamino)ethoxy)pyridin-2-yl)nicotinamide] | – | 2.02 µM | – | –
1.17 µM | – | Cc1nc(-c2ccc(-c3ccc(C(=O)Nc4cc(OCCN(C)C)c(Br)cn4)cc3)c(C(F)(F)F)c2)no1 [Example 18, N-(5-bromo-4-(2-(dimethylamino)ethoxy)pyridin-2-yl)-4′-(5-methyl-1,2,4-oxadiazol-3-yl)-2′-(trifluoromethyl)-[1,1′-biphenyl]-4-carboxamide] | 0.42 µM | – | – | –
1.99 µM | – | Cc1nc(-c2ccc(-c3ccc(C(=O)Nc4ccc(Br)c(OCCN(C)C)n4)cn3)c(C3CC3)c2)no1 [Example 51, N-(5-bromo-6-(2-(dimethylamino)ethoxy)pyridin-2-yl)-6-(2-cyclopropyl-4-(5-methyl-1,2,4-oxadiazol-3-yl)phenyl)nicotinamide] | 1.2 µM | – | – | –
1.03 µM | – | Cc1nc(-c2ccc(-c3ccc(C(=O)Nc4ccc(C#N)c(OCCN(C)C)n4)cc3)c(C3CC3)c2)no1 [Example 30, N-(5-cyano-6-(2-(dimethylamino)ethoxy)pyridin-2-yl)-2′-cyclopropyl-4′-(5-methyl-1,2,4-oxadiazol-3-yl)-[1,1′-biphenyl]-4-carboxamide] | 2.8 µM | – | – | –
3.79 µM | – | Cc1nc(-c2ccc(-c3ccc(C(=O)Nc4ncc(Br)c(OCCN(C)C)n4)cn3)c(F)c2)no1 [Example 58, N-(5-bromo-4-(2-(dimethylamino)ethoxy)pyrimidin-2-yl)-6-(2-fluoro-4-(5-methyl-1,2,4-oxadiazol-3-yl)phenyl)nicotinamide] | 2.61 µM | – | – | –
